Assay results from US20140050779A1, “[…]-2 INHIBITORS AND USES THEREOF” (SINGAPORE HEALTH SERVICES PTE. LTD., priority 2011, published 2014).
Entries after “also recorded” stand apart in the source; their conditions may differ.

Key:
Type in all cases: cell-based
TG-1 [1] = experiment: Western blot of TG proteins in human scleral fibroblasts after muscarinic agents; settings: 0.01-10 μM for 5 days
TG-3 [2] = experiment: as above; settings: 0.01-10 μM for 5 days
TG-5 [3] = experiment: as above; settings: 0.01-10 μM for 5 days
TG-1 [4] = experiment: Western blot of TG proteins in mouse scleral fibroblasts after muscarinic agents; settings: 0.01-10 μM for 5 days
Protocol: (§1) All cells used in examples described herein were between passages 2-4. Passaged cells were plated at a concentration of 2×10^5/mL into 6 well plates containing DMEM with 10% FBS. The cells were seen to attach to the bottom of the culture wells after 4 hours. Old media was removed from wells and 1 mL of drug was added with fresh full medium and incubated at 37° C. Fresh drugs were replaced daily consecutively for the next 5 days to avoid oxidation. The drugs/media was removed and wells were washed twice with 1×PBS. 200 μl of RIPA lysis buffer was added per well and incubated for 5 minutes and cells were scrapped into an eppendorf tube. The cells were stored at −20° C. until sonication. The cells were sonicated on ice thrice at 20% output power for 5 seconds each time and rested 1 minute in between each turn. Cell debris was spun down at 12000 rpm for 20 minutes. The supernatant was poured into a new eppendorf tube and cell concentrations were determined using the Dc Protein assay Kit (Bio-Rad, MA). Passaged cells were plated at a concentration of 1×10^5 into 6 well plates containing DMEM with 10% FBS. The cells were seen to attach to the bottom of the culture wells after 4 hours. Freshly prepared muscarinic agents' at base line, 0.1, 1, 10 and 100 μM concentrations were added for 5 days (Table 2). The culture medium was removed and fresh medium containing the same muscarinic drug added every day to avoid drug changes such as atropine oxidation. Cell lysate was collected for relative quantitative (q) PCR and protein analysis at day 5.
(§2) The cells were lysed by sonification in 1×RIPA lysis buffer (santa cruz biotechnology, Sc-24948) with 10 μl PMSF solution, 10 μl sodium orthovanadate solution and 20 μl protease inhibitor cocktail solution. After centrifugation at 20,000×g at 4° C. for 20 minutes, and the supernatant collected. The protein content in the supernatants was measured using the DC Protein Assay kit (Bio-Rad, MA) following the manufacturer's instructions. Samples were stored at −80° C. until assayed.
(§3) The mouse and human scleral fibroblasts were treated with atropine or carbachol at 0.01, 0.1, 1, 5 and 10 μM concentrations for 5 days. Following 5 days of treatment, the total cellular protein was extracted from these cells and TG proteins detected via Western blot analysis.
(§4) Human and, mouse scleral fibroblast proteins in the supernatant were separated by SDS-PAGE, transferred to nitrocellulose membranes, blocked in 5% BSA in TBST (10 mM Tris-HCl [pH 8.0], 150 mM NaCl, and […] Tween-20) for 2 hours at room temperature, and incubated with the same anti-TG-2 antibody described herein at a dilution of 1:1000 and anti β-tubulin antibodies used as a positive control, for 1 hour at room temperature. The membranes were washed 3 times in TBST and incubated with HRP-conjugated secondary antibody (Chemicon International) at a dilution of 1:2500 for 1 hour at room temperature. Immunoreactive bands were visualized using the enhanced chemiluminescence method (GE Healthcare, Buckinghamshire, UK). The membrane was wrapped in plastic and placed against an X-ray film to expose for an appropriate length of time (30 seconds-5 minutes).

TG-2 [5] = experiment: as above; settings: 0.01-10 μM for 5 days, Western blot
Protocol: as §1, §2, §3, §4

TG-3 [6] = experiment: as above; settings: 0.01-10 μM for 5 days
Protocol: as §1, §2, §3, §4

TG-5 [7] = experiment: as above; settings: 0.01-10 μM for 5 days
TGase 1 transcript = experiment: qPCR of TGases mRNA in mouse scleral fibroblasts after muscarinic agents; settings: 0.01-10 μM for 5 days, qPCR normalized to GAPDH
Protocol: (§5) P2 cultured mouse scleral fibroblasts were treated with atropine or carbachol at different concentrations of 0.01 μM, 0.1 μM, […], 5 μM and 10 μM for 5 days. Following 5 days of treatment, the total RNA was extracted from these cells and TGases transcript level was quantified via qPCR analysis. Height of bars show the means of three independent samples and error bars represent standard deviation. Values are normalized against GAPDH house keeping genes.
as §1
(§6) Total RNA was isolated from cultured human and mouse scleral fibroblasts using TRIzol reagent (Invitrogen life technologies, USA) in accordance with the manufacturer's instructions Chomczynski P, Sacchi N., “Single-step method of RNA isolation by acid guanidinium thiocyanate-phenol-chloroform extraction”, Anal. Biochem. 1987 April; 162(1):156-9. Genomic DNA was removed by digestion with DNase I (Amp Grade; Invitrogen-Gibco) for 15 minutes at room temperature. One microgram of total RNA was reverse-transcribed with random hexamers by using a first-strand cDNA synthesis kit (Invitrogen-Gibco). qPCR was performed in a 384-well plate format on an Roche 480 LightCycler Detection System (Roche Applied Science, Mannheim, Germany) with efficiency corrected software 4.0. PCR was performed using 50 ng of cDNA of each sample. The pre-validated hydrolysis probes for TG-2 were from human and mouse universal probe library (Roche, CA) and the primers for human and mouse are shown in Table 3. GAPDH Internal Standard (Roche) was used as an endogenous control. To standardize and evaluate scleral gene expression, aliquots of the same cDNA (50 ng) preparation were used as templates in all PCR reactions. The data was analyzed by comparative CT (MCT) method as previously described in Brink N, Szamel M, Young A R, Wittern K P, Bergemann J., “Comparative quantification of IL-1, IL-10, Il-10r, TNF and IL-7 mRNA levels in UV-irradiated human skin in vivo”, Inflamm Res. 2000 June; 49(6):290-6.

TGase 5 transcript = experiment: as above; settings: 0.01-10 μM for 5 days, qPCR normalized to GAPDH
Protocol: as §5, §1, §6

TGase-3 transcript = experiment: as above; settings: 0.01-10 μM for 5 days, qPCR normalized to GAPDH
Protocol: as §5, §1, §6

[8] = tested on: TGase 2 (TGM-2) transcript; experiment: as above; settings: 0.01-10 μM for 5 days, qPCR normalized to GAPDH
Protocol: as §5
Murine scleral derived fibroblasts were cultured to passage 2 and treated to exogenous atropine or carbachol at 0.01 μM, 0.1 μM, 1 μM, 5 μM and 10 μM for 5 days. Following 5 days of treatment, the total RNA was extracted from these cells and RT-qPCR performed to determine transcript levels of TGM-2. The levels were normalized to GAPDH internal control. […] Height of bars or symbols represents mean and error bars SD. *: p<0.05 and **: p<0.001.
All cells used in examples described herein were between passages 2-4. Passaged cells were plated at a concentration of 2×10^5/mL into 6 well plates containing DMEM with 10% FBS. The cells were seen to attach to the bottom of the culture wells after 4 hours. […] The supernatant was poured into a new eppendorf tube and cell concentrations were determined using the Dc Protein assay Kit (Bio-Rad, MA). […] Cell lysate was collected for relative quantitative (q) PCR and protein analysis at day 5. […]

TG-2 [9] = experiment: TG-2 colorimetric microassay (transamidase activity) in lysate of treated mouse scleral fibroblasts; settings: murine scleral derived fibroblasts, 0.01-10 μM for 5 days
cultured SF cells = experiment: effect of TG-2 inhibitors on cultured scleral fibroblast growth (XCELLigence)
Protocol: (§7) To test the effect of TG-2 inhibitors on cultured scleral fibroblast growth, cultured SF cells at passage 4 were treated with TG-2 inhibitors at baseline, 0.1, 1, 10 and 100 μM for 5 days. The SF cell growth was monitored by XCELLigence cell impedance.

human SF = experiment: as above
Protocol: as §7

mouse SF = experiment: as above
Protocol: as §7

Structure (SMILES) | TG-1 protein level (TG-1 [1]) | TG-3 protein level (TG-3 [2]) | TG-5 protein level (TG-5 [3]) | TG-1 protein level (TG-1 [4]) | TG-2 protein level (TG-2 [5]) | TG-3 protein level (TG-3 [6]) | TG-5 protein level (TG-5 [7]) | TGase 1 transcript level (TGase 1 transcript) | TGase 5 transcript level (TGase 5 transcript) | TGase-3 transcript level (TGase-3 transcript) | TGase 2 (TGM-2) transcript level [8] | transamidase (cross-linking) activity of TG-2 (TG-2 [9]) | effect of the higher concentrations on SF cells (cultured SF cells) | concentration at which effective on SF cell growth (human SF) | concentration at which effective on SF cell growth (mouse SF)
C[N+](C)(C)CCOC(N)=O [carbachol] | the converse was true; also recorded: increased | the converse observed; also recorded: decreased | the converse was true; also recorded: increased | the converse was true; also recorded: increased | increased; also recorded: opposite effect | the converse observed; also recorded: decreased | the converse was true; also recorded: increased | increased only by relatively higher concentrations | increased only by relatively higher concentrations | opposite findings | opposite effect; also recorded: opposite findings | opposite effects | – | – | –
CN(C)c1cccc2c(S(=O)(=O)NCCCCCN)cccc12 [MDC, Monodansyl caderverine] | – | – | – | – | – | – | – | – | – | – | – | – | cell death and morphological change | 10 µM | 50 µM
